Laboratory results: ChEMBL document CHEMBL1201862, “PubChem BioAssay data set” (2004)
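Values below derive from 48-hour exposures of cells grown in 96-well plates, with endpoints linearly interpolated between the two concentrations bracketing the appropriate inhibition level. The concentration for 50% growth inhibition is given as GI50.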 Activity calls are given as the source filed them. No stated cut-off is given here; in the data, active = GI50 up to about 1.1 µM and inactive = higher.

Experiments:
Test in all cases: NCI-60 cell line screen, 48 h
ACHN = tested on: ACHN
786-0 = tested on: 786-0
MDA-N = tested on: MDA-N
LOX IMVI = tested on: LOX IMVI
A498 = tested on: A498
SK-OV-3 = tested on: SK-OV-3
NCI-H460 = tested on: NCI-H460
K562 = tested on: K562
TK-10 = tested on: TK-10
MOLT-4 = tested on: MOLT-4
RPMI-8226 = tested on: RPMI-8226
HT-29 = tested on: HT-29
UO-31 = tested on: UO-31
OVCAR-8 = tested on: OVCAR-8
SW-620 = tested on: SW-620
SR = tested on: SR
PC-3 = tested on: PC-3
HOP-92 = tested on: HOP-92
SK-MEL-2 = tested on: SK-MEL-2
Hs-578T = tested on: Hs-578T

Measured: GI50

COc1ccc(-c2nc(Nc3ccccc3)sc2Cc2sc(Nc3ccccc3)nc2-c2ccc(OC)cc2)cc1
inactive: ACHN 45.1 µM | 786-0 98.9 µM | MDA-N 46.1 µM | LOX IMVI 15.5 µM | A498 25.2 µM | SK-OV-3 > 100 µM | NCI-H460 51.8 µM | K562 5.18 µM | TK-10 > 100 µM | MOLT-4 12.6 µM | RPMI-8226 1.8 µM | HT-29 70.6 µM | UO-31 > 100 µM | OVCAR-8 > 100 µM | SW-620 67.5 µM | SR 26 µM

CCCCCCCCCCCCCCCCOCC(CC(F)(F)P(=O)(OCC)OCC)OC(C)=O (stereo not drawn)
inactive: ACHN 13.9 µM | 786-0 10.8 µM | PC-3 13.8 µM | MDA-N 16.9 µM | HOP-92 10.3 µM | A498 12.5 µM | SK-OV-3 19.6 µM | NCI-H460 10.7 µM | K562 14.1 µM | TK-10 14 µM | MOLT-4 28.1 µM | SK-MEL-2 19.6 µM | RPMI-8226 25.1 µM | HT-29 14.9 µM | UO-31 16 µM | SW-620 14.8 µM

CCCCN(CCCC)c1ccc(/N=N/c2ccc(S(=O)(=O)O)cc2)cc1
inactive: ACHN 46.7 µM | PC-3 25.8 µM | MDA-N 52.2 µM | HOP-92 7 µM | LOX IMVI 18.9 µM | A498 31.4 µM | SK-OV-3 25.5 µM | NCI-H460 34 µM | K562 26.9 µM | TK-10 67.8 µM | MOLT-4 17.7 µM | SK-MEL-2 51.1 µM | RPMI-8226 20.4 µM | HT-29 26.4 µM | UO-31 72.3 µM | OVCAR-8 22 µM | SW-620 33 µM

CN(C)c1ccc(/C=N/NC(=S)Nc2ccccc2)cc1
inactive: ACHN > 100 µM | 786-0 > 100 µM | PC-3 > 100 µM | Hs-578T > 100 µM | HOP-92 > 100 µM | LOX IMVI > 100 µM | A498 > 100 µM | SK-OV-3 > 100 µM | NCI-H460 > 100 µM | K562 > 100 µM | TK-10 > 100 µM | MOLT-4 > 100 µM | SK-MEL-2 > 100 µM | RPMI-8226 > 100 µM | HT-29 > 100 µM | UO-31 > 100 µM | OVCAR-8 > 100 µM | SW-620 > 100 µM | SR > 100 µM

CC1=C(C(=O)Nc2ccc(Cl)c(C(=O)OC(C)C)c2)SCCO1
inactive: ACHN > 100 µM | 786-0 > 100 µM | PC-3 > 100 µM | Hs-578T 17.7 µM | HOP-92 66.2 µM | LOX IMVI 51.6 µM | A498 53.5 µM | SK-OV-3 > 81.1 µM | NCI-H460 66.2 µM | K562 45.6 µM | TK-10 > 100 µM | MOLT-4 40.4 µM | SK-MEL-2 68.4 µM | RPMI-8226 23.3 µM | HT-29 25.7 µM | UO-31 36.9 µM | OVCAR-8 81.3 µM | SW-620 74.8 µM

O=C(NC(CO)CO)c1ccc2cc(C(=O)N3CC(CCl)c4ccc([N+](=O)[O-])cc43)[nH]c2c1 (stereo not drawn)
inactive: ACHN > 100 µM | 786-0 > 100 µM | PC-3 > 100 µM | Hs-578T > 100 µM | MDA-N > 100 µM | HOP-92 > 100 µM | LOX IMVI > 100 µM | SK-OV-3 > 100 µM | NCI-H460 > 100 µM | K562 > 100 µM | TK-10 > 100 µM | MOLT-4 > 100 µM | SK-MEL-2 > 100 µM | HT-29 > 100 µM | UO-31 > 100 µM | OVCAR-8 > 100 µM | SW-620 > 100 µM

NC1=C(N2CCOCC2)C(=O)NC2=N/C(=C\c3ccccc3O)C(=O)N21
inactive: ACHN > 100 µM | 786-0 > 100 µM | Hs-578T > 100 µM | MDA-N > 100 µM | HOP-92 51.8 µM | LOX IMVI > 100 µM | A498 > 100 µM | SK-OV-3 > 100 µM | NCI-H460 89.3 µM | K562 52.2 µM | TK-10 > 100 µM | MOLT-4 31.6 µM | RPMI-8226 20.5 µM | HT-29 > 100 µM | UO-31 > 100 µM | OVCAR-8 > 100 µM | SW-620 > 100 µM | SR 35.6 µM

C=C1CN(Cc2ccccc2)[C@@H]2CCCCC[C@H](C#N)[C@H]12
inactive: ACHN > 100 µM | 786-0 > 100 µM | PC-3 > 74.1 µM | MDA-N > 100 µM | HOP-92 36.3 µM | LOX IMVI 95.9 µM | A498 > 100 µM | SK-OV-3 > 86.9 µM | NCI-H460 > 78.2 µM | K562 47.2 µM | TK-10 > 100 µM | MOLT-4 24.3 µM | SK-MEL-2 > 100 µM | RPMI-8226 22.5 µM | HT-29 > 67.5 µM | UO-31 > 63.4 µM | OVCAR-8 > 68.4 µM | SW-620 > 94.8 µM | SR > 47.8 µM

COc1ccc(NC(=S)Nc2cc(C)ccn2)cc1
inactive: ACHN > 100 µM | 786-0 > 100 µM | PC-3 > 100 µM | Hs-578T > 100 µM | HOP-92 > 100 µM | LOX IMVI > 100 µM | A498 > 100 µM | NCI-H460 > 100 µM | K562 > 100 µM | TK-10 > 100 µM | MOLT-4 > 100 µM | SK-MEL-2 > 100 µM | RPMI-8226 > 100 µM | HT-29 > 100 µM | UO-31 > 100 µM | OVCAR-8 > 100 µM | SW-620 > 100 µM | SR > 100 µM

O=C(N/N=C/c1ccc(Cl)cc1)c1cc(I)cc(I)c1O
inactive: ACHN > 100 µM | 786-0 > 100 µM | PC-3 > 100 µM | MDA-N > 100 µM | HOP-92 92.3 µM | LOX IMVI > 100 µM | A498 33.3 µM | SK-OV-3 > 100 µM | K562 > 100 µM | TK-10 > 100 µM | MOLT-4 > 100 µM | SK-MEL-2 > 100 µM | RPMI-8226 > 100 µM | HT-29 > 100 µM | UO-31 > 100 µM | OVCAR-8 > 100 µM | SW-620 > 100 µM | SR 76.6 µM

CN1C(=O)NC(=O)/C(=C\Nc2ncccn2)C1=O
inactive: ACHN > 100 µM | 786-0 > 100 µM | PC-3 > 100 µM | Hs-578T > 100 µM | MDA-N > 100 µM | HOP-92 > 100 µM | LOX IMVI > 100 µM | A498 > 100 µM | SK-OV-3 > 100 µM | NCI-H460 > 100 µM | TK-10 > 100 µM | MOLT-4 > 100 µM | SK-MEL-2 > 100 µM | HT-29 > 100 µM | UO-31 > 100 µM | OVCAR-8 > 100 µM | SW-620 > 100 µM
